# Laboratory results reported in paper PMC9603750, “Chalcone-Acridine Hybrid Suppresses Melanoma Cell Progression via G2/M Cell Cycle Arrest, DNA Damage, Apoptosis, and Modulation of MAP Kinases Activity” (International Journal of Molecular Sciences, 2022).
# What was measured:
# Type in all cases: cell-based, human
# BLM = experiment: MTT assay (metabolic activity)
# Description: (§1) Cell lines A2058 (human melanoma lymph node metastasis, cat. 91100402) from ECACC (Public Health England, Salisbury, UK) and BLM (human melanoma lung metastasis a gift from prof. K. Smetana, Institute of Anatomy, Charles University in Prague) were cultured in a medium consisting of high glucose Dulbecco’s Modified Eagle’s Medium (DMEM) and sodium pyruvate (GE Healthcare, Piscataway, NJ, USA). The growth medium was supplemented with a 10% fetal bovine serum (FBS) and antibiotic/antimycotic solution 1 × HyClone™ (GE Healthcare, Chicago, IL, USA). The MCF-10A (human mammary epithelial cells) cell line was cultured in a medium consisting of high glucose Dulbecco’s Modified Eagle’s Medium F12 (DMEM/F12) (Biosera, Kansas City, MO, USA). The growth medium was supplemented with a 10% FBS, antibiotic/antimycotic solution 1 × HyClone™ (GE Healthcare, Chicago, IL, USA), epidermal growth factor (EGF) (20 ng/mL final), hydrocortisone (0.5 μg/mL final) and insulin (10 μg/mL final) (Sigma-Aldrich Chemie, Steinheim, Germany). Cells were cultured in humidified air at 37 °C with atmosphere containing 5% CO2.
# (§2) The half-maximal inhibitory concentration values (IC50) and metabolism inhibition of tested synthetic chalcone derivatives were determined by MTT (3-(4,5-di-methylthiazol-2-yl)2,5-diphenyltetrazolium bromide) colorimetric assay (Sigma-Aldrich Chemie, Steinheim, Germany). Tested cell lines were seeded at a density of 5 × 10^3 cells/well in 96-well culture plates. After 24 h, the tested chalcones in concentrations of 100, 50 and 10 μmol/L were added and incubation proceeded for the next 72 h. In the next step, 10 μL of MTT (5 mg/mL) was added to each well containing cells and incubated for another 4 h at 37 °C during which MTT was metabolized to insoluble formazan in cells. After 4 h, 100 μL of a 10% sodium dodecyl sulphate (SDS) was added to each well and another 24 h were allowed for the formazan crystals to dissolve. The metabolic activity of cells was evaluated by measuring the absorbance at wavelength 540 nm using the automated Cytation™ 3 Cell Imaging Multi-Mode Reader (Biotek, Winooski, VT, USA). Three independent analyses were performed.
# A2058 = experiment: MTT assay (metabolic activity)
# Description: as §1, §2
# A2058 melanoma cells [1] = experiment: Flow cytometric analysis of mitochondrial membrane potential (TMRE); details: A2058, 1C 10 μmol/L, 24, 48 and 72 h
# Description: (§3) The A2058 and BLM melanoma cells were seeded 1 × 10^6 in Petri dishes with complete growth medium and cultivated for 24 h. After cell cultivation, the A2058 cells were treated with chalcone 1C at 10 μmol/L concentration, BLM cells at 20 μmol/L concentration and both melanoma cell lines were treated with DMSO as the negative control at the same concentrations for 24, 48 and 72 h. Adherent and floating cells were harvested, pelleted by centrifugation at 1200 rpm for 5 min. Pellets were resuspended in washing buffer (PBS) and divided for a particular analysis. Afterwards, cells were prepared according to assay kit protocols or fixed with cold 4% paraformaldehyde (15 min) and permeabilized with 90% methanol (10 min on ice) with washing steps (PBS) and stained prior to analysis (Table 5) for 15 min in the dark at room temperature. Fluorescence was detected using a BD FACSCalibur^TM Flow Cytometer (Becton Dickinson, San Jose, CA, USA).
# BLM melanoma cells [2] = experiment: as above; details: 1C 20 μmol/L, 24, 48 and 72 h
# Description: as §3
# A2058 melanoma cells [3] = experiment: Cell cycle analysis by flow cytometry (PI); details: A2058, 1C 10 μmol/L
# Description: (§4) The A2058 and BLM melanoma cells were seeded at a density of 1 × 10^5/dish in a Petri dish. Twenty-four hours after incubation, A2058 cells were treated with chalcone 1C at 10 μmol/L concentration, BLM cells at 20 μmol/L concentration and both melanoma cell lines were treated with DMSO as the negative control at the same concentrations. For flow cytometric analysis of the cell cycle, adherent and floating A2058 and BLM melanoma cells were harvested in three different times (24, 48 and 72 h) after treatment with chalcone 1C and DMSO, washed in cold washing buffer (PBS), fixed in cold 70% ethanol and stored at −20 °C at least overnight. Prior to analysis, cells were washed with PBS, resuspended in staining solution (Triton X-100 final concentration 0.1%, ribonuclease A final concentration 0.5 mg/mL and propidium iodide final concentration 0.025 mg/mL, all Sigma), and incubated for 30 min in the dark at room temperature. Stained melanoma cells were analysed using a BD FACSCalibur^TM Flow Cytometer (Becton Dickinson, San Jose, CA, USA). Three independent analyses were performed.
# BLM melanoma cells [4] = experiment: Cell cycle analysis by flow cytometry (PI); details: 1C 20 μmol/L
# Description: as §4
smiles,measurement,setting,value
"COc1cccc(OC)c1C(=O)/C=C/c1c2ccccc2nc2ccccc12 [Compound 1C, (2E)-3-(acridin-9-yl)-1-(2,6-dimethoxyphenyl)prop-2-en-1-one]",IC50,"BLM; Homo sapiens, BLM, 72 h incubation",17.9 ± 0.87 µM
same,"Selectivity index, BLM (MTT)","BLM; MCF-10A vs BLM, calculated on the basis of MTT results",2.0
same,IC50,"A2058; Homo sapiens, A2058, 72 h incubation",7.96 ± 0.38 µM
same,"Selectivity index, A2058 (MTT)","A2058; MCF-10A vs A2058, calculated on the basis of MTT results",4.6
same,Cells with reduced mitochondrial membrane potential (MMP),A2058 melanoma cells [1],significant increase
same,Cells with reduced mitochondrial membrane potential (MMP),BLM melanoma cells [2],significant increase
same,G1,A2058 melanoma cells [3]; 24 h,34.67 ± 4.92
same,G2/M,A2058 melanoma cells [3]; 24 h,52.23 ± 7.03
same,S,A2058 melanoma cells [3]; 24 h,11.79 ± 1.51
same,subG0,A2058 melanoma cells [3]; 24 h,1.30 ± 1.11
same,G1,A2058 melanoma cells [3]; 48 h,24.60 ± 11.45
same,G2/M,A2058 melanoma cells [3]; 48 h,59.73 ± 12.23
same,S,A2058 melanoma cells [3]; 48 h,8.12 ± 1.15
same,subG0,A2058 melanoma cells [3]; 48 h,7.54 ± 3.73
same,G1,A2058 melanoma cells [3]; 72 h,18.67 ± 8.56
same,G2/M,A2058 melanoma cells [3]; 72 h,60.37 ± 4.42
same,S,A2058 melanoma cells [3]; 72 h,8.85 ± 2.70
same,subG0,A2058 melanoma cells [3]; 72 h,12.12 ± 5.84
same,G1,BLM melanoma cells [4]; 24 h,19.35 ± 1.43
same,G2/M,BLM melanoma cells [4]; 24 h,63.25 ± 0.45
same,S,BLM melanoma cells [4]; 24 h,9.19 ± 0.28
same,subG0,BLM melanoma cells [4]; 24 h,8.22 ± 1.62
same,G1,BLM melanoma cells [4]; 48 h,11.65 ± 0.69
same,G2/M,BLM melanoma cells [4]; 48 h,54.95 ± 0.45
same,S,BLM melanoma cells [4]; 48 h,16.35 ± 0.20
same,subG0,BLM melanoma cells [4]; 48 h,17.05 ± 0.45
same,G1,BLM melanoma cells [4]; 72 h,13.85 ± 1.18
same,G2/M,BLM melanoma cells [4]; 72 h,29.25 ± 0.04
same,S,BLM melanoma cells [4]; 72 h,32.60 ± 2.69
same,subG0,BLM melanoma cells [4]; 72 h,24.30 ± 3.84
